In ChEMBL document CHEMBL1201862, “PubChem BioAssay data set” (2004):
Calls of active or inactive are those of the source.

How the values were obtained:
[1] = cells; format: functional, cell-based
[2] = cells; format: functional, cell-based; remark: listed apart in the source
[3] = target: T1, RNA-binding protein pos-1 (Caenorhabditis elegans, UniProt G5EF15); assay: disruptors of C. elegans POS-1 RNA interaction – biochemical, fluorescence polarization, dose response (AID 1964);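 further: purified POS-1 fused to maltose binding protein made in E. coli; potency of compounds blocking POS-1 binding to fluorescent RNA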
T1 sequence (G5EF15 whole entry): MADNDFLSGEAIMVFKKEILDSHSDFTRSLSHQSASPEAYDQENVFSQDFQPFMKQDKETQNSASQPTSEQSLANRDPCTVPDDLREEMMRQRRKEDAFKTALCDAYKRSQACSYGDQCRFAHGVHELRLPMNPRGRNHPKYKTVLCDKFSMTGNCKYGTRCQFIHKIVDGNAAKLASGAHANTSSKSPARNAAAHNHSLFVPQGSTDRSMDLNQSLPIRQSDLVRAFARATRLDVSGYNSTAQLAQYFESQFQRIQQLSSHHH

[4] = Luminescence Cell-Based Dose Confirmation HTS to Identify Activators of 5'UTR Stem-Loop Driven Alpha-Synuclein mRNA Translation in H4 Neuroglioblastoma Cells. [Related pubchem assays: 1829 (Project Summary), 1814 (Primary HTS)]; format: functional
[5] = Luminescence Cell-Based Dose Response HTS to Identify Activators of Luciferase Translation or Activity in H4 […] Cells. [Related pubchem assays: 1829 (Project Summary), 1814 (Primary HTS)]; format: functional
[6] = tested on: H4; assay: Luminescence Cell-Based Dose Response HTS to Identify Activators of 5'UTR Stem-Loop Driven Prion Protein mRNA Translation in H4 Neuroglioblastoma Cells. [Related pubchem assays: 1829 (Project Summary), 1814 (Primary HTS)]; format: functional; conditions: Homo sapiens
[7] = target: T2, Zinc finger protein mex-5 (Caenorhabditis elegans, UniProt Q9XUB2); assay: potency of MEX-5 RNA-binding blockers – biochemical, C. elegans, fluorescence polarization, dose response (AID 1960)
T2 sequence (Q9XUB2 whole entry): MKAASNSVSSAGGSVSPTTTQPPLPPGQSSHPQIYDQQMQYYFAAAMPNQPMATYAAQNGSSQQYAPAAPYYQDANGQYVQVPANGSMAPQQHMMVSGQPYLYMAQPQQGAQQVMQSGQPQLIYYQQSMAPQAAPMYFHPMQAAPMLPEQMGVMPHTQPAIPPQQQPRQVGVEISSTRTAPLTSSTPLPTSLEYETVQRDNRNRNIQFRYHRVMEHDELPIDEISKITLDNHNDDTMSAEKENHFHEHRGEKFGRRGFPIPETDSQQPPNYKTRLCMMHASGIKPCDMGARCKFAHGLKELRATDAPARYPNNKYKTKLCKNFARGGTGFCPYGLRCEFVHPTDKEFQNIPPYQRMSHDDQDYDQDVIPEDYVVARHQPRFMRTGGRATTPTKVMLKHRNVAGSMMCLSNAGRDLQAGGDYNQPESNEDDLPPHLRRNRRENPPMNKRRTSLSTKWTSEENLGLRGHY

[8] = target: T3, Protein skinhead-1 (Caenorhabditis elegans, UniProt P34707); format: functional
T3 sequence (P34707 whole entry): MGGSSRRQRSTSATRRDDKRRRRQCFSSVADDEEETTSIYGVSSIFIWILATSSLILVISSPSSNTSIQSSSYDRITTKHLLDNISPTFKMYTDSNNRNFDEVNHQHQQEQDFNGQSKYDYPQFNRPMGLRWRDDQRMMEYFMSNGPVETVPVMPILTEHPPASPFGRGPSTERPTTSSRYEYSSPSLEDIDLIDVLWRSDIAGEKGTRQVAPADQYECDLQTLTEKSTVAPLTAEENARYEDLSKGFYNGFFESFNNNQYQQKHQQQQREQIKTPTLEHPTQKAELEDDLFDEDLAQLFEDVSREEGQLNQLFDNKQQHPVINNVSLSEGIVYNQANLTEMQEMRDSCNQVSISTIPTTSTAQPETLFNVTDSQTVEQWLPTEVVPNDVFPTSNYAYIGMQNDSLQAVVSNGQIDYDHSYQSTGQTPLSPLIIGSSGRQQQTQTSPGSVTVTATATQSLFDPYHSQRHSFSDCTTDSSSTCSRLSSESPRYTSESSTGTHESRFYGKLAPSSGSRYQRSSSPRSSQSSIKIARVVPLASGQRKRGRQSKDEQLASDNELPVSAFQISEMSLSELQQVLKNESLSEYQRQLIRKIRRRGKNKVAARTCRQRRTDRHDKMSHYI

[9] = tested on: H9c2; assay: cells; format: functional, cell-based; conditions: Rattus norvegicus, H9c2, Myocardium;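 further: confirmatory concentration-response retest of ultra-high-throughput screening hits for modulation of myocardial damage; cell death induced by hydrogen peroxide oxidative stress; compound pretreatment for 60 min then peroxide exposure for 2 h; potency is for protecting the cells against peroxide damage rather than for killing them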
[10] = target: T4, Short transient receptor potential channel 4 (Mus musculus, UniProt Q9QUQ5); assay: block of DAMGO-driven TRPC4 calcium entry – cell-based, HEK293 TRPC4/mu-opioid, Fluo-4 calcium, dose response (AID 434942); format: functional;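 further: potency of inhibitors blocking the TRPC4 calcium response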
T4 sequence (Q9QUQ5 whole entry): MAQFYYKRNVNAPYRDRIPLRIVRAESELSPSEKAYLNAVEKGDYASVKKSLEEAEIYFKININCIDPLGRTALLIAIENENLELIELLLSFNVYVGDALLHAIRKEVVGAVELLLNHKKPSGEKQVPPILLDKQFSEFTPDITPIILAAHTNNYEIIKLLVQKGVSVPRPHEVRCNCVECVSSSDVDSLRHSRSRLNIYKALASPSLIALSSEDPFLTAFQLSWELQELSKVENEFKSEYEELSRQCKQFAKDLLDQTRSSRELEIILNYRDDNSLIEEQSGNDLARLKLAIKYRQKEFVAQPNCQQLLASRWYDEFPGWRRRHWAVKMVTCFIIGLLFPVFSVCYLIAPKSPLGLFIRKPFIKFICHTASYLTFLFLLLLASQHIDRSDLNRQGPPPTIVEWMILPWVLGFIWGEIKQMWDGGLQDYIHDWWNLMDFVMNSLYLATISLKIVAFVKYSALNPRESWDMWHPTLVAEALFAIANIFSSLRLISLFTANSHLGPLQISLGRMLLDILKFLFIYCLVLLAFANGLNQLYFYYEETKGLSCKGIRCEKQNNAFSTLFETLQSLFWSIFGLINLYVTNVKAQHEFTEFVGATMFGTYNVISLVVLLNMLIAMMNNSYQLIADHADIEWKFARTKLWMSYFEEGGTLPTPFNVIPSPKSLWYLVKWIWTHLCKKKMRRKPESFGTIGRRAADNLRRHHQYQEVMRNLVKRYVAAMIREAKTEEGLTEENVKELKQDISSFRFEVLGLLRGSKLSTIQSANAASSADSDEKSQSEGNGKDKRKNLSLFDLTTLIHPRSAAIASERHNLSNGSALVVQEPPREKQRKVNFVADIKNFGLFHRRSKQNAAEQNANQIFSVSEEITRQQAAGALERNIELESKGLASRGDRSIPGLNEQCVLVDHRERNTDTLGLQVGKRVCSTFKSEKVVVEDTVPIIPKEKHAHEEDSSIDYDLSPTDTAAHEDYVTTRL

[11] = target: Large T antigen (Simian virus 40, UniProt P03070); format: functional, Betapolyomavirus macacae;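 further: Confirmatory-stage PubChem screen for compounds that inhibit SV40 T antigen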
Large T antigen, sequence (P03070 whole entry): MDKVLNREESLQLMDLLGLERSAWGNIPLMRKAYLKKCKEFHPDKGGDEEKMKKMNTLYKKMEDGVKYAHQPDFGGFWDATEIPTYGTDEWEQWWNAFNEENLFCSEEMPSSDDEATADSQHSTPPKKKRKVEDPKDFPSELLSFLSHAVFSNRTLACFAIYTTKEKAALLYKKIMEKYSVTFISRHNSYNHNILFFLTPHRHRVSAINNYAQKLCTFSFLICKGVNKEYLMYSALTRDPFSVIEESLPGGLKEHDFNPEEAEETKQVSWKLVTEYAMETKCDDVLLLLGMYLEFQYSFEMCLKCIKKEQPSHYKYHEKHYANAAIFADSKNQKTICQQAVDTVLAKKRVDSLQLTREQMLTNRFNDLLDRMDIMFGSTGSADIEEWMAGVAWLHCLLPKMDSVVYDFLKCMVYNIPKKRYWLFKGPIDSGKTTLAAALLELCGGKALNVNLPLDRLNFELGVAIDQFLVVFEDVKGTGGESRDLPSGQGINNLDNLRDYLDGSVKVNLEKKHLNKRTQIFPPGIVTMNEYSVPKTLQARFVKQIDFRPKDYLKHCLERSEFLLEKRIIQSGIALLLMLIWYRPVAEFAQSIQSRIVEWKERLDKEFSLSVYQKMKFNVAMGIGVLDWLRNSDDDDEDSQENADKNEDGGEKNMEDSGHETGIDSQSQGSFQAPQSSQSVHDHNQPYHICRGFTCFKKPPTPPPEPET

[12] = target: Cytochrome P450 2C9 (Homo sapiens, UniProt P11712)
Cytochrome P450 2C9, sequence (P11712 whole entry): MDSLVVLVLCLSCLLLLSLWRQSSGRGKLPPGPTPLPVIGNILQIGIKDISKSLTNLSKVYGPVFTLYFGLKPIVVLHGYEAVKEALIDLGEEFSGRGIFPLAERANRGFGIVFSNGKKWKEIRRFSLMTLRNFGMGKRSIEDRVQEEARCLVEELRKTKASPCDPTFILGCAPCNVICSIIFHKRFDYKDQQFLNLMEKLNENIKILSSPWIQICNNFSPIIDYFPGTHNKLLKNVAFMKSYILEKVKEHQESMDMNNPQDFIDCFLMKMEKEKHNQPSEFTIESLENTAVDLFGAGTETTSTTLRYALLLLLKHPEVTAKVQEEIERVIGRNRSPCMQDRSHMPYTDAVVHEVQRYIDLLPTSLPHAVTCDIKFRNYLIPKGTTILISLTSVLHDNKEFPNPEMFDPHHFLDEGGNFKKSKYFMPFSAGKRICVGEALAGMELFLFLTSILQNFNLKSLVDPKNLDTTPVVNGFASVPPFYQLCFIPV

[13] = target: T5, Cytochrome P450 1A2 (Homo sapiens, UniProt P05177);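 further: PubChem cytochrome P450 panel assay, CYP1A2 panel member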
T5 sequence (P05177 whole entry): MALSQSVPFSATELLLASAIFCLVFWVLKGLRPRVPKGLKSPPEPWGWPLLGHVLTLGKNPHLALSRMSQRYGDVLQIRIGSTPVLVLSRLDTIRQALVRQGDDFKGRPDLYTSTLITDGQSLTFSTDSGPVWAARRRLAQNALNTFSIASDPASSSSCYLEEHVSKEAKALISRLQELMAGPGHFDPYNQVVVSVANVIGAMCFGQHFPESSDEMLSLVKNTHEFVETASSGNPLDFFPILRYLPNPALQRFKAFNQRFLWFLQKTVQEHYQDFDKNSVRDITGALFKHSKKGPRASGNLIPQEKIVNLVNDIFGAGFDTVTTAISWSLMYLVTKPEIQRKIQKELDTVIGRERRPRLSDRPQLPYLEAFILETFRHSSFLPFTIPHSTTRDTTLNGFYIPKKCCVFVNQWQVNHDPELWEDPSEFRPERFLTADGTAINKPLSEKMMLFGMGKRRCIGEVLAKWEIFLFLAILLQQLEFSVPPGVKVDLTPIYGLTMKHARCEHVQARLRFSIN

[14] = target: Cytochrome P450 3A4 (Homo sapiens, UniProt P08684);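 further: CYP3A4 tested as one member of a cytochrome P450 panel screen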
Cytochrome P450 3A4, sequence (P08684 whole entry): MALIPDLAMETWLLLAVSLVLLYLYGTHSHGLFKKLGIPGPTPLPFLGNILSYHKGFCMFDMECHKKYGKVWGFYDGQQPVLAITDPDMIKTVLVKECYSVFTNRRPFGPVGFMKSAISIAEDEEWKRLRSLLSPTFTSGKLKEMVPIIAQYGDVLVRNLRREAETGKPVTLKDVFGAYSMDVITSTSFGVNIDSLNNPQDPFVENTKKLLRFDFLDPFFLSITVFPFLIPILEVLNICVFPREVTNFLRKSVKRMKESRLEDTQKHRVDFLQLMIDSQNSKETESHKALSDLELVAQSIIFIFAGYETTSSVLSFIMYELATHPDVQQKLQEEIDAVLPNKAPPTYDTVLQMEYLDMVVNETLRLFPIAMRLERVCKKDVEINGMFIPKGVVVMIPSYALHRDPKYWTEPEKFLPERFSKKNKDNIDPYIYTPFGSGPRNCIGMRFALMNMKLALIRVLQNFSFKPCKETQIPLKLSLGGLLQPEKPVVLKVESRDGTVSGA

[15] = reduction of Shn3 3'UTR-driven luciferase in osteoblasts – cell-based, Clone20 osteoblasts, firefly luciferase, cherry-picked, dose response (AID 624132); format: functional;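 further: firefly luciferase luminescence from reporter carrying the Shn3 3'UTR in osteoblasts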
[16] = loss of viability in HepG2 cells – cell-based, CellTiter-Glo, cherry-picked, cytotoxicity control for Shn3 inhibitor project, dose response (AID 624134); format: functional
[17] = non-specific 3'UTR reporter inhibition in Clone20-Shn3RL – cell-based, Renilla luciferase, cherry-picked, counter-screen for Shn3 inhibitor project, dose response (AID 624133); format: functional
[18] = blockers of HIV-1 envelope-mediated cell-cell fusion – cherry-pick, dose response (AID 652057); format: functional, cell-based

For `Cc1ccc(C)c(OCC(=O)N2CCN(Cc3ccc4c(c3)OCO4)CC2)c1`, the EC50 [1] was > 350 µM (not active) and the EC50 [2] was > 350 µM (not active).
For `Cc1ccc(Cl)cc1N1CCN(CC(O)COCc2ccco2)CC1` (centres undefined), the EC50 [1] was > 350 µM (not active) and the EC50 [2] was > 350 µM (not active).
For `Cc1cc(CC(C)C)n(-c2nc3ccccc3c(=O)n2OCc2ccccc2)n1`, the EC50 [3] was > 300 µM (not active), the EC50 [4] was 6.96 µM (active) and the EC50 [5] was 13.5 µM (active). For the same compound, the EC50 [6] was > 120 µM (not active), the EC50 [7] was > 300 µM (not active) and the IC50 [8] was > 100 µM (inactive).
With `CC(C)(C)NC(=O)c1cccc(NC(=O)c2ccc(NC(=O)c3ccco3)cc2)c1` the IC50 [9] was > 79 µM (inactive).
In the case of `CCCN1CN(Cc2ccco2)c2nc3ccccc3n2C1`, the EC50 [10] was 1.88 µM (active).
For `CN(C)c1ccc(NC(=O)CN2C3CCCC2CC(NC(=O)c2ccccc2)C3)cc1` (centres undefined), the IC50 [11] was 7.46 µM (active) and the EC50 [10] was 3.35 µM (active).
With `COc1ccc(S(=O)(=O)N2CCc3ccccc3C2)cc1OC` the AC50 [12] was “inconclusive”.
In the case of `Nc1cc(=O)nc(SCC(=O)Nc2cccc3ccccc23)n1CCc1ccccc1`, the AC50 [13] was 17.8 µM (inconclusive) and the AC50 [12] was “inconclusive”.
For `CCN(Cc1ccccc1)C(=O)c1cc2c(=O)oc3ccc(C)cc3c2s1`, the IC50 [9] was > 79 µM (inactive).
For `COc1cc(OC)c(C2N(C)c3ccccc3N2C)cc1OC`, the EC50 [10] was 1.33 µM (active).
For `O=C1N=C(N2CCOCC2)S/C1=C\c1ccc(-c2ccccc2Cl)o1`, the EC50 [3] was > 300 µM (not active) and the EC50 [7] was > 300 µM (not active).
With `O=C(COc1ccccc1[N+](=O)[O-])Nc1ccc(N2CCN(C(=O)c3cccs3)CC2)cc1` the IC50 [9] was > 79 µM (inactive).
With `CCN1C(=O)C(=Cc2ccc(N3CCOCC3)o2)C(=O)N(CC)C1=S` the EC50 [3] was > 300 µM (not active) and the EC50 [7] was > 300 µM (inconclusive).
With `Cc1ccc(N(CCC#N)C(=O)CSc2nc(O)c3ccccc3n2)cc1` the IC50 [9] was 35.4 µM (inactive).
With `COc1ccc(C(=O)Nc2cccc(-c3ccc4nncn4n3)c2)cc1` the EC50 [1] was > 350 µM (not active) and the EC50 [2] was > 350 µM (not active).
In the case of `COC(=O)c1cc(-n2cccc2)ccc1N1CCOCC1`, the EC50 [3] was > 300 µM (not active) and the EC50 [7] was > 300 µM (not active).
In the case of `O=C(Nc1ccc(F)cc1)N1CCN2C(=O)c3ccccc3C12c1ccccc1` (centres undefined), the EC50 [10] was 1.68 µM (active).
With `CCSc1nc(NCCN(C)C)c2c3c(sc2n1)COC(C)(CC)C3` (centres undefined) the EC50 [1] was > 350 µM (not active) and the EC50 [2] was > 350 µM (not active).
With `OC(C#Cc1ccccn1)c1cccs1` (centres undefined) the EC50 [3] was 33.4 µM (active) and the EC50 [7] was 27.4 µM (inconclusive).
In the case of `COCCn1c(SCc2cccc([N+](=O)[O-])c2)nc2ccccc2c1=O`, the EC50 [10] was 1.68 µM (active).
For `Cc1ccc2nc(SCC(=O)Nc3ccc(Br)cc3)nc(=O)n2c1`, the EC50 [1] was > 350 µM (not active) and the EC50 [2] was > 350 µM (not active).
In the case of `CC(C)=CCN1CCN(Cc2cccc3nonc23)CC1CCO` (centres undefined), the EC50 [10] was 2.99 µM (active).
In the case of `CCOc1ccc(N2C(=O)C3C4C=CC(CC4)C3C2=O)c([N+](=O)[O-])c1` (centres undefined), the AC50 [13] was 25.1 µM (inconclusive), the AC50 [14] was 20 µM (inconclusive) and the AC50 [12] was “inconclusive”.
With `COc1cccc2c1OC[C@@H](CO)[C@H]2N(C)C(=O)Nc1ccc(Cl)cc1Cl` the AC50 [12] was “inconclusive”.
In the case of `Cc1ccc(Cn2c(CCNc3nc(-c4ccc(Cl)c([N+](=O)[O-])c4)cs3)nc3cc(C(=O)NCCCO)ccc32)cc1`, the IC50 [9] was 47.7 µM (inactive).
In the case of `O=C(CCN1CCc2ccccc2C(O)(c2ccccc2)C1)c1ccc2c(c1)OCCO2` (centres undefined), the EC50 [10] was 8.41 µM (active), the AC50 [15] was 23.1 µM (active) and the AC50 [16] was 63.3 µM (active). For the same compound, the AC50 [17] was 11.4 µM (active).
In the case of `Cn1c2ccccc2c(=O)c2ccc(NCc3ccc4c(c3)OCO4)cc21`, the IC50 [9] was 15.2 µM (active).
For `Cc1cnc(C=O)c2cccc([N+](=O)[O-])c12`, the IC50 [9] was > 79 µM (inactive).
In the case of `COc1ccc(/C(O)=C/C=N/c2ccc([N+](=O)[O-])cc2C)c(OC)c1`, the EC50 [3] was > 300 µM (not active) and the EC50 [7] was > 300 µM (not active).
With `CCCNC(=O)C[C@@H]1C[C@H]2c3cc(NC(=O)Cc4ccncc4)ccc3O[C@H]2[C@@H](CO)O1` the AC50 [18] was 55.2 µM (active).
With `N#CC(C#N)=Cc1ccc(N2CCOCC2)cc1` the EC50 [3] was > 300 µM (inconclusive) and the EC50 [7] was > 300 µM (not active).
